Assay results published in paper PMC12292992, “Betulinic Acid ω-Triphenylphosphonium Alkyl Esters: Antiproliferative Activities and In Silico Pharmacokinetic Profiles” (Biomedicines, 2025).

Experiments:
[1] = tested on: AU565 cells; assay: Oxygen consumption assay (Clark-type electrode); type: cell-based, human; settings: AU565, 10 and 20 µM
Description: (§1) Oxygen consumption of the tumor cells was measured polarographically using a Clark-type electrode (Yellow Springs Instruments, Dayton, OH, USA) placed horizontally in a cell of 0.6 mL volume at 25 °C, coupled to a YSI monitor (model 53). The electrode signal was recorded in a computer connected to a DI-148U module with a USB interface. Data were acquired using the Windaq Acquisition Waveform Recorder software v3.36 (DataQ Instruments, Akron, OH, USA). The test medium used contained 150 mM NaCl, 5 mM KCl, and 1 mM Tris-HCl, and pH 7.4. 5 mM glutamine was added with the cells and test compounds. Oxygen consumption was recorded when the cell aliquots (6 × 10^6 cells) were added. Oligomycin (1.5 μg/mL) was added as an inhibitor of the Fo subunit of ATP synthase prior to the incorporation of the compounds under study. FCCP (carbonyl cyanide-p-trifluoromethoxyphenylhydrazone, 50 nM) was used prior to the addition of test compounds as an internal control to calibrate the electrode system and confirm the maximum uncoupling capacity of the cells.

[2] = tested on: MCF-7 cells; assay: Oxygen consumption assay (Clark-type electrode); type: cell-based, human; settings: for oxygen consumption rate: after oligomycin
Description: as §1

[3] = tested on: J82 cells; assay: MTT cell viability assay, bladder carcinoma; type: cell-based; settings: Homo sapiens, J82, 72 h
Description: (§2) Human cell lines were obtained from the American Type Culture Collection (ATCC, Manassas, VA, USA). Normal lung MRC-5 fibroblasts (ATCC® CCL-171™), SK-MES-1 lung cancer cells (ATCC® HTB-58™), and J82 bladder carcinoma cells (ATCC® HTB-1™) were grown as monolayers in Eagle’s minimum essential medium (MEM) with Earle’s salts, 2 mM L-glutamine, and 1.5 g/L sodium bicarbonate. Gastric epithelial AGS cells (ATCC® CRL-1739™) were grown as monolayers in Ham’s F-12 medium containing 1 mM L-glutamine and 1.5 g/L sodium bicarbonate. Promyelocytic leukemia HL-60 (ATCC® CCL-240™), colorectal adenocarcinoma HCT-15 (ATCC® CCL-225™), metastatic colorectal COLO205 (ATCC® CCL-222™), and breast cancer AU565 (ATCC® CRL-2351™, ER^−-HER2/neu^+) cells were grown in suspension in an RPMI-1640 medium containing 1 mM sodium pyruvate and 2.0 g/L sodium bicarbonate. Human breast cancer MCF-7 (ATCC® HTB-22™, ER^+-HER2/neu^−) and MDA-MB-231 (ATCC® HTB-26™, ER^−-HER2/neu^−) cells were grown as monolayers in DMEM medium. All media were supplemented with 10% heat-inactivated fetal bovine serum (HI-FBS), 100 IU/mL penicillin G, and 100 µg/mL streptomycin. Cells were maintained at 37 °C in a humidified incubator with 5% CO2.
(§3) MRC-5, SK-MES-1, J82, and AGS cells were seeded at a density of 5 × 10^4 cells/mL in 96-well plates. COLO205, HCT-15, MCF-7, MDA-MB-231, and AU565 cells were seeded at 1 × 10^5 cells/mL, while HL-60 cells were plated at 3 × 10^5 cells/mL. A volume of 100 µL of the cell suspension was added to each well. After 24 h, the compounds were added in increasing concentrations (ranging from 0 to 100 µM), and cells were incubated for 24, 48, or 72 h. The compounds were dissolved in DMSO and diluted in complete medium to a final concentration of 0.5% DMSO. Cells treated with 0.5% DMSO in complete medium were used as viability controls (100%). Etoposide (98% purity, Sigma-Aldrich, St. Louis, MO, USA) was used as the reference compound. Each concentration was tested in quadruplicate, and each experiment was performed twice using independent cell preparations. At the end of the incubation period, cell viability was determined using the MTT reduction assay. The results were transformed into percentages relative to controls, and IC50 values were obtained graphically from the dose–response curves. Results are presented as IC50 values ± standard deviation (SD).

[4] = tested on: MRC-5 normal human lung fibroblasts; assay: MTT cell viability assay, normal lung fibroblasts; type: cell-based; settings: MRC5, MRC-5, 72 h
Description: as §2, §3

[5] = tested on: human cancer cell lines; assay: MTT cell viability, summary over the human cancer cell lines; type: cell-based; settings: summary statement
Description: as §2, §3

[6] = tested on: SK-MES-1 cells; assay: MTT cell viability assay, lung cancer; type: cell-based; settings: Homo sapiens, SK-MES-1, 72 h
Description: as §2, §3

[7] = tested on: HCT-15 cells; assay: MTT cell viability assay, colorectal carcinoma; type: cell-based, human; settings: for IC50: Homo sapiens
Description: as §2, §3

[8] = tested on: COLO205 cells; assay: Annexin V/propidium iodide double staining, flow cytometry; type: cell-based, human; settings: 24 h
Description: (§4) The type of cell death induced by the BA-C4-TPP^+Br^− was assessed by flow cytometry, using Annexin V/propidium iodide (AV/PI) double staining, following the instructions of the Annexin V-FITC Apoptosis Detection Kit (Abcam, Cambridge, UK). Cells were cultured at 5 × 10^4 cells/well in 24-well plates and incubated overnight. Afterwards, cells were treated with increasing concentrations of BA-C4-TPP^+Br^− (1, 2.5, 5, or 10 µM for COLO205 and HCT-15 cells) for 24 h. Finally, cells were trypsinized, resuspended in annexin V binding buffer 1X, adding AV and PI, and incubated for 5 min at room temperature, protected from light. Control corresponds to cells incubated with DMSO 1%. Fluorescence of each probe was assessed by flow cytometry (FACSAria®III, BD Biosciences, Franklin Lakes, NJ, USA). Wavelengths used were 488Ex/530Em nm for AV-FITC and 488Ex/575Em nm for PI. Results are expressed as total apoptotic cells (percentage of AV+/PI− and AV+/PI+ cells), necrotic cells (percentage of AV-/PI+ cells), and live cells (percentage of AV-/PI− cells). Cyflogic software (non-commercial 6th version, CyFlo Ltd., Turku, Finland) was used for data processing.

[9] = tested on: HCT-15 cells; assay: as above; type: cell-based, human; settings: 24 h
Description: as §4

[10] = tested on: AGS cells; assay: MTT cell viability assay, gastric adenocarcinoma; type: cell-based; settings: Homo sapiens, 72 h
Description: as §2, §3

[11] = tested on: COLO205 cells; assay: MTT cell viability assay, metastatic colorectal cancer; type: cell-based, human; settings: for IC50: Homo sapiens, COLO 205
Description: as §2, §3

## C=C(C)[C@@H]1CC[C@]2(C(=O)OCCCC[P+](c3ccccc3)(c3ccccc3)c3ccccc3)CC[C@]3(C)[C@H](CC[C@@H]4[C@@]5(C)CC[C@H](O)C(C)(C)[C@@H]5CC[C@]43C)[C@@H]12 [BA-C4-TPP^+Br^−, 4-Triphenylphosphoniobutyl 3β-hydroxylup-20(29)-en-28-oate bromide]
[1]
  mitochondrial uncoupling effect: the strongest uncoupler in AU565 cells
[2]; MCF-7, 10 µM compound
  oxygen consumption rate: 12.57 nmol O2 min^−1
[2]; MCF-7, 20 µM compound
  oxygen consumption rate: 21.66 nmol O2 min^−1
[2]; MCF-7, 10 and 20 µM
  mitochondrial uncoupling effect: concentration-dependent
[3]
  IC50: 0.84 ± 0.02 µM
[4]
  IC50: 0.21 ± 0.01 µM
[5]; Homo sapiens, 48 and 72 h of treatment
  IC50: < 1 µM
[5]; nine human cancer cell lines, relative to BA
  increase in potency: over 100 fold
[6]
  IC50: 0.32 ± 0.08 µM
[7]; HCT-15 cells at 72 h
  increase in potency compared to non-modified BA scaffold: approximately 7 fold
[7]; HCT-15, 24 h
  IC50: 1.46 ± 0.17 µM
[7]; HCT-15, 48 h
  IC50: 0.61 ± 0.16 µM
[7]; HCT-15, 72 h
  IC50: 0.52 ± 0.12 µM
[8]; COLO205, 1 μM
  apoptosis induction: ~14%
[8]; COLO205, 2.5 μM
  apoptosis induction: ~34%
[8]; COLO205, 5 μM
  necrotic cell death: 15%
[8]; COLO205, initial concentration (1 μM)
  necrotic cell death: 5%
[9]; HCT-15, 2.5 μM
  apoptosis induction: 12%
  necrosis induction: 7%
[9]; HCT-15, 10 μM
  necrotic cell death: ~30%
[10]
  IC50: 0.35 ± 0.02 µM
[11]; COLO205 cells at 72 h
  increase in potency compared to non-modified BA scaffold: ~264 fold
[11]; COLO205, 24 h
  IC50: 0.88 ± 0.22 µM
[11]; COLO205, 48 h
  IC50: 0.45 ± 0.09 µM
[11]; COLO205, 72 h
  IC50: 0.13 ± 0.01 µM
